Source: patent US20250302802A1, “METHODS AND COMPOSITIONS” (VRG 145 ZRT., priority 2024, published 2025)
Where two headings read alike, the source gives them in different places. Blank lines part the entries; values can stand above or below the molecule they belong to.

How the values were obtained:
[1] = tested on: face allodynia in the infraorbital nerve ligation model; assay: Partial infraorbital nerve ligation model, reversal of face allodynia (head withdrawal threshold, von Frey); type: in vivo; conditions: Rattus norvegicus, po; per os; mean (S.E.M.); individual maximum post-dose reversals; combination in terms of doses of the individual components; read-out: ED50 (effective dose causing 50% reversal of the allodynia)
Procedure: Infraorbital nerve ligation models, either by partial ligation or by the loose ligation of the whole nerve (chronic constriction injury) have been used as models of trigeminal neuralgia or trigeminal neuropathic pain. […] Male Sprague-Dawley rats weighing 200-220 g at surgery and 290-390 g at the time of testing were used. As primary read-outs of tactile pain sensitivity of the face, head withdrawal thresholds were measured by repeated stimulations using von Frey filaments (Touch Test Sensory Probes, Stoelting®). Before surgery, the rats were habituated to the testing for two weeks, first by handling (for 2 days) and then by repeated touching with von Frey filaments and finally determination of 50% head withdrawal thresholds (HWT) on three consecutive days. Rats with HWT<10 g at 2 out of 3 pre-surgery tests were not enrolled in the study. Sensitivity of the orofacial region was tested using calibrated von Frey filaments, with a series of filaments with bending force ranging between 0.4-14.8 g. […] HWTs were determined using Chaplan's up-down method, starting with the filament of 2 g bending force. […] The evaluated post-dose data (HWTs in gram) were converted to percent reversals, taking the simultaneous post-dose average HWT value of the vehicle treated group as 0% and the pre-surgery average value of animals involved in the test substance-treated group as 100%.

[2] = tested on: cardiovascular system; assay: Cardiovascular telemetry in awake unrestrained normotensive rats; type: in vivo, rat; conditions: for Heart rate; difference from Vehicle treated, Mean / Mean arterial blood pressure; difference from Vehicle treated, Mean: oral gavage, post-dose period of 3-6 hours
Procedure: The cardiovascular parameters of normotensive rats instrumented with telemetric devices were investigated to determine whether the observed in vivo pharmacodynamic synergy exists also for cardinal side effects of the drug components of the combination. As lisinopril is an antihypertensive drug, its vasodilator and antihypertensive effects or other related cardiovascular effects may be cardinal side effects. Therefore, a cardiovascular telemetry study was performed with lisinopril, memantine and their combination in rats. Male Sprague-Dawley rats weighing 250-300 g at the start of the investigations were used. The animals were housed individually in artificially lightened chambers with a 12 h light and dark cycle (lights on at 07:00) and an ambient temperature of 20-22° C. Radiotelemetric units comprising transmitters with built in sensors (Data Sciences International, USA, Type: HD-S11) were surgically implanted into rats under sodium pentobarbital (50 mg/kg, i.p.) induced anesthesia. The rat abdomen was opened by a midline laparotomy. After visualizing the aorta, it was separated from the vena cava just caudal to the left dorsal muscular branch. A piece of 5-0 suture was placed between the vena cava and aorta so that the suture lied underneath the aorta. By this suture the aorta was temporarily occluded, and the catheter introduced into the vessel. After drying the aorta around the catheter entry site, a small amount of tissue adhesive was applied and 5-10 seconds later the suture was loosened. The bipolar ECG leads were tunneled subcutaneously into Lead II position and fixed with surgical sutures. Closure of the abdomen and skin was followed by 7 days recovery period. […] Drug tests were performed on 8 rats used repeatedly according to a 4-way crossover design, carried out in three sessions. In each session, all the 8 animals were treated and tested on 4 occasions with 3- or 4-days washout periods between treatments (i.e. Mondays and Thursdays in two weeks), so that on each occasion 4 pairs of rats were treated with 4 types of treatment (vehicle control, test substance A, test substance B and combination A+B), and during the 4 occasions all the animals were given all the 4 types of treatment according to a Latin-square 4-way crossover design. In the three consecutive 2-week-long sessions, three dose levels of test substances were tested in an escalating order. […] For evaluation and data reduction, pre-dose 10-min, post-dose 30-min segment averages were calculated and plotted (FIG. 5). […] None of the test substance treatments caused any apparent effect on the body temperature as compared to vehicle control data. The stress of handling and oral gavage administration caused a transient increase in both blood pressure and heart rate as indicated by changes in the vehicle treated data. However, after these transient changes, blood pressure and heart rate returned to the pre-dose level in the vehicle control group. […] For within session statistical analysis of differences from vehicle control, one-way ANOVA followed by Dunnett's test was used.

[3] = tested on: periorbital allodynia in the dural inflammation model; assay: Dural inflammation (inflammatory soup) model, reversal of periorbital allodynia (periorbital threshold, von Frey); type: in vivo, rat; conditions: 90 min post-dose; for reversal of allodynia at the medium dose level: solo 0.6 mg/kg per os
Excerpt: Male Sprague-Dawley rats weighing approximately 250 g at surgery were used. Rats were habituated and trained for 1-2 weeks and then fitted with a stainless-steel cannula (22GA, Plastics One) under isoflurane anesthesia. […] Special attention was given not to disturb the dura. A custom flange guide cannula (22GA, Plastics One) was inserted into the hole (cut 0.5 mm below pedestal). The cannula was fixed to the bone with small screws and dental cement. A dummy that extended just past the end of the guide cannula was inserted to prevent scar tissue from forming, and thus clogging the cannula. Animals were allowed 1-2 weeks of recovery before testing and infusions began. Periorbital thresholds (POT) were monitored 7-10 days after surgery to ensure the thresholds generally returned to pre-surgery baselines.
While under isoflurane anesthesia, the infusion procedure proceeded over 5 consecutive days in which a Hamilton syringe attached to an infusion pump was used to deliver 15 μL of inflammatory soup over 8 minutes, at a rate of 1.759 μL/min. The Hamilton syringe was connected to tubing with a custom cannula injector at the tip; the syringe, tubing line, and injector were filled to the tip with inflammatory soup solution. The custom cannula injector was inserted into the flange cannula and the infusion started. The inflammatory soup contained 2 mM histamine, 2 mM bradykinin, 2 mM serotonin, and 0.2 mM prostaglandin E2 dissolved in saline.
Only animals that developed sustained hypersensitivity and satisfied the periorbital sensitivity criteria (POT<2.5 g) were enrolled into the study and each week into test groups.
Sensory testing was performed on testing days using von Frey filaments (Stoelting®, Wood Dale, Illinois) with reproducible calibrated buckling forces varying from 0.4-10 g utilizing Chaplan's up-down method. The specific fibers utilized were 3.61 (0.4 g), 3.84 (0.6 g), 4.08 (1 g), 4.31 (2 g), 4.56 (4 g), 4.74 (6 g), 4.93 (8 g), and 5.07 (10 g); 4.31 (2 g) was the starting fiber. Allodynia was tested by gently restraining the rat in the investigator's hand by holding the rat in one hand with fingers just behind the left forepaw, keeping the animal pressed against the investigator's chest. Fibers were applied by perpendicularly touching the rostral portion of the periorbital region (below the lower eye margin close to the rostral corner) causing slight buckling of the filament for approximately 5 seconds. Based on the response pattern and the force of the final filament, the withdrawal threshold (g) was calculated.
On testing days, a blinded investigator tested periorbital sensitivity pre-dose, 45 min, 90 min, and 135 min after drug administration. […]

[4] = tested on: central nervous system (rotarod performance); assay: Accelerating rotarod test; type: in vivo, rat; conditions: any of the three dose levels: 0.6, 2, 6 mg/kg solo; 0.3+0.3, 1+1, 3+3 mg/kg combination; per os; 45 and 90 min post-dose
Procedure: Animals were acclimatized to the laboratory conditions for at least 5 days before the first experiment and kept under artificial lighting between 7:00 and 19:00 in a controlled ambient temperature of 22±2° C. One hundred animals were assigned to ten treatment groups, which were tested in parallel with appropriate randomization, time shifts and cohorts needed to exploit the capacity of test apparatus. The test groups comprised nine test substance treated groups, of three treatment types (lisinopril, memantine and their 1:1 combination), each administered at three dose levels, and a vehicle control group for comparison. Corresponding dose levels of the combination were half of the doses of the solo drug treatments. Thus, the tested dose levels were 0.6, 2 and 6 mg/kg for the solo treatments and 0.3+0.3, 1+1 and 3+3 mg/kg for the combination. The test substances were dissolved in physiological saline for dosing volume of 5 mg/kg. The test substances were administered per os by gavage. […] One week later, the same animals received the same treatment and were tested in the rotarod test.
The rotarod test detects neurological deficits. Rats were placed on a rod (diameter: 7 cm) rotating at a constant speed of 4 revolutions per minute for a 2-minute period. When they fell off during this period they were replaced on the rod. […] The latency to fall off was recorded (cut-off: 3 minutes). […]

[5] = tested on: central nervous system (horizontal locomotor activity); assay: Locomotor activity test; type: in vivo, rat; conditions: 60-90 minutes post-dose
Excerpt: Memantine is a neurological drug with neurological side effects at high doses, such as sedative or dissociative or psychotomimetic side effects in humans, and locomotion stimulating and motor coordination impairing effects in rodents. Therefore, as a further test to see if pharmacodynamic synergy exists also for cardinal side effects of the drug components of the combination two central nervous system side effect assessing pharmacodynamic interaction studies (locomotor activity and rotarod tests) were performed with lisinopril, memantine and their combination in rats. Male Sprague Dawley rats weighing 200-250 g at start of testing were used. Animals were acclimatized to the laboratory conditions for at least 5 days before the first experiment and kept under artificial lighting between 7:00 and 19:00 in a controlled ambient temperature of 22±2° C. One hundred animals were assigned to ten treatment groups, which were tested in parallel with appropriate randomization, time shifts and cohorts needed to exploit the capacity of test apparatus. […] Corresponding dose levels of the combination were half of the doses of the solo drug treatments. […] The test substances were dissolved in physiological saline for dosing volume of […]. The test substances were administered per os by gavage. First, the locomotor test was carried out. One week later, the same animals received the same treatment and were tested in the rotarod test. The locomotor activity test detects stimulant or sedative activity. The activity meter consisted of 16 covered Plexiglas cages (40×25×25 cm) contained within a darkened enclosure and connected to silent electronic counters. Each cage was equipped with four photocell assemblies (two at each end of the cage) 3 cm above the floor to measure the number of movements by each animal (one per cage) in the horizontal plane. The number of (horizontal) crossings by each animal (one per cage) from one pair of photocells to the other was recorded by computer in 10-minute intervals. […] The cumulated events in the period of 60-90 minutes post-dose were evaluated.

[6] = Pharmacokinetic interaction study of lisinopril and memantine; type: in vivo; conditions: rat, serum
Procedure: The statistical significance of differences between corresponding solo treatment and combination treatment mean values was evaluated by Student's unpaired t-test. The areas under the curve between TO (time of dosing) and last tested timepoint (135 min) were also calculated to assess the drug exposures in each animal (Table 2).

[7] = dose 0.3 mg/kg (combination containing the same dose of lisinopril)
[8] = dose 1 mg/kg (combination containing the same dose of lisinopril)
[9] = dose 3 mg/kg (combination containing the same dose of lisinopril)
[10] = Memantine 0.3 mg/kg, read-out: Concentration of Memantine, Mean
[11] = Memantine 1 mg/kg, read-out: Concentration of Memantine, Mean
[12] = Lisinopril 0.3 mg/kg, read-out: Concentration of Lisinopril, Mean
[13] = Lisinopril 1 mg/kg, read-out: Concentration of Lisinopril, Mean

effect on the locomotor activity ([5]; highest dose level (6 mg/kg per os)): significant increase
effect on the locomotor activity ([5]; two lower dose levels (0.6 and 2 mg/kg per os)): not at the two lower dose levels
concentration at 45 min [6, 10]: 5.58 ng/mL
concentration at 90 min [6, 10]: 8.46 ng/mL
concentration at 135 min [6, 10]: 8.91 ng/mL
concentration at 45 min [6, 11]: 11.4 ng/mL
concentration at 90 min [6, 11]: 22.3 ng/mL
concentration at 135 min [6, 11]: 24.2 ng/mL
AUC(0-t) ([6]; dose 0.3 mg/kg, read-out: Mean AUC (AUC0-135 min) of Memantine, Solo (converted)): 13.9 ng·h/mL
AUC(0-t) ([6]; dose 1 mg/kg, read-out: Mean AUC (AUC0-135 min) of Memantine, Solo (converted)): 34.4 ng·h/mL
SMILES: CC12CC3CC(C)(C1)CC(N)(C3)C2 [Memantine, 1-amino-3,5-dimethyladamantane]
ED50 [1]: 0.478 mg/kg
effect on hemodynamic parameters (blood pressure, heart rate) ([2]; 0.3, 1 and 3 mg/kg, combination compared with lisinopril): no effect
Heart rate; difference from Vehicle treated, Mean [2, 7]: −2.87 beats per min
Mean arterial blood pressure; difference from Vehicle treated, Mean [2, 7]: −1.39 mmHg
Heart rate; difference from Vehicle treated, Mean [2, 8]: −8.51 beats per min
Mean arterial blood pressure; difference from Vehicle treated, Mean [2, 8]: 0.11 mmHg
Heart rate; difference from Vehicle treated, Mean [2, 9]: −3.03 beats per min
Mean arterial blood pressure; difference from Vehicle treated, Mean [2, 9]: −0.13 mmHg
reversing effect on the allodynia (percent reversal) ([3]; per os 0.2, 0.6 and 2 mg/kg): ≤ 15%
reversal of allodynia at the medium dose level [3]: around 15%
effect on rotarod performance (latency to fall off) [4]: neither lisinopril, nor memantine, nor their combination had a significant effect

concentration at 45 min [6, 12]: 5.75 ng/mL
concentration at 90 min [6, 12]: 9.44 ng/mL
concentration at 135 min [6, 12]: 14.2 ng/mL
concentration at 45 min [6, 13]: 9.86 ng/mL
concentration at 90 min [6, 13]: 43 ng/mL
concentration at 135 min [6, 13]: 57 ng/mL
AUC(0-t) ([6]; dose 0.3 mg/kg, read-out: Mean AUC (AUC0-135 min) of Lisinopril, Solo (converted)): 16.7 ng·h/mL
AUC(0-t) ([6]; dose 1 mg/kg, read-out: Mean AUC (AUC0-135 min) of Lisinopril, Solo (converted)): 61 ng·h/mL
SMILES: NCCCC[C@H](N[C@@H](CCc1ccccc1)C(=O)O)C(=O)N1CCC[C@H]1C(=O)O [Lisinopril, (S)-1-[N2-(1-carboxy-3-phenylpropyl)-L-lysyl]-L-proline]
ED50 [1]: 0.488 mg/kg
suppression of the blood pressure ([2]; almost dose-independently, 0.3-3 mg/kg): about 7 mmHg
Heart rate; difference from Vehicle treated, Mean [2, 7]: 8.37 beats per min
Mean arterial blood pressure; difference from Vehicle treated, Mean [2, 7]: −7.05 mmHg
Heart rate; difference from Vehicle treated, Mean [2, 8]: 20.62 beats per min
Mean arterial blood pressure; difference from Vehicle treated, Mean [2, 8]: −7.47 mmHg
Heart rate; difference from Vehicle treated, Mean [2, 9]: 29.39 beats per min
Mean arterial blood pressure; difference from Vehicle treated, Mean [2, 9]: −7.72 mmHg
ED40 (effective dose causing 40% reversal of the allodynia) ([3]; per os): 1.85 mg/kg
reversal of allodynia at the medium dose level [3]: around 15%
effect on rotarod performance (latency to fall off) [4]: neither lisinopril, nor memantine, nor their combination had a significant effect
effect on the locomotor activity ([5]; any of the three dose levels: 0.6, 2, 6 mg/kg solo, 0.3+0.3, 1+1, 3+3 mg/kg combination, per os): neither lisinopril nor the combination exerted a significant effect
